PubChem BioAssay (NCI)
Values joined by “and” are separate entries in the source; they are usually repeats but may differ in a detail not shown here. Equal values may be shown once.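 Following 48 hours of exposure in 96-well plates, responses at five concentrations were used to interpolate endpoints linearly. At the GI50, growth is halved. At the TGI there is no net growth.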

How the values were obtained:
Assay in all cases: growth of human tumour cells (NCI), 48 h
MOLT-4 leukemia = tested on: MOLT-4 leukemia
RXF 393 renal = tested on: RXF 393 renal
OVCAR-8 ovarian = tested on: OVCAR-8 ovarian
LOX IMVI melanoma = tested on: LOX IMVI melanoma
HOP-92 NSCLC = tested on: HOP-92 NSCLC
SF-295 CNS = tested on: SF-295 CNS
UACC-257 melanoma = tested on: UACC-257 melanoma
KM12 colon = tested on: KM12 colon
EKVX NSCLC = tested on: EKVX NSCLC
SK-OV-3 ovarian = tested on: SK-OV-3 ovarian

| Compound | TGI (MOLT-4 leukemia) | TGI (RXF 393 renal) | TGI (OVCAR-8 ovarian) | TGI (LOX IMVI melanoma) | TGI (HOP-92 NSCLC) | TGI (SF-295 CNS) | TGI (UACC-257 melanoma) | TGI (KM12 colon) | TGI (EKVX NSCLC) | TGI (SK-OV-3 ovarian) | GI50 (MOLT-4 leukemia) | GI50 (RXF 393 renal) | GI50 (OVCAR-8 ovarian) | GI50 (LOX IMVI melanoma) | GI50 (HOP-92 NSCLC) | GI50 (SF-295 CNS) | GI50 (UACC-257 melanoma) | GI50 (KM12 colon) | GI50 (EKVX NSCLC) | GI50 (SK-OV-3 ovarian) |
| --- | --- | --- | --- | --- | --- | --- | --- | --- | --- | --- | --- | --- | --- | --- | --- | --- | --- | --- | --- | --- |
| Cc1ccc(S(=O)(=O)OC2CC=CC2)cc1 | > 100 µM | > 100 µM | > 100 µM | > 100 µM | > 100 µM | > 100 µM | > 100 µM | > 100 µM | > 100 µM | > 100 µM | – | – | – | – | – | – | – | – | – | – |
| O=C1N/C(=C\[N+](=O)[O-])c2ccccc21 | > 100 µM | > 100 µM | > 100 µM | > 100 µM | > 100 µM | > 100 µM | > 100 µM | > 100 µM | > 100 µM | > 100 µM | – | – | – | – | – | – | – | – | – | – |
| Nc1ncnc2c1ncn2C1C=C(CO)C(O)C1O (stereo not drawn) | 30.9 µM | 42.8 µM | > 100 µM | 45.4 µM | > 76.1 µM | > 100 µM | > 100 µM | > 100 µM | > 100 µM | 44.2 µM | – | – | – | – | – | – | – | – | – | – |
| O=C(O)CSCCc1ccccc1 | > 100 µM | > 100 µM | > 100 µM | > 100 µM | > 100 µM | > 100 µM | > 100 µM | > 100 µM | > 100 µM | > 100 µM | – | – | – | – | – | – | – | – | – | – |
| CCCCCCCCCCCCCCCCCCOC[C@H](COP(=O)(O)O[C@H]1[C@H](O)[C@@H](O)[C@H](O)C[C@H]1O)OC | > 100 µM and 33 µM | > 100 µM and 21.1 µM | > 100 µM and 31.8 µM | > 100 µM and 27.3 µM | > 100 µM and 25.3 µM | > 100 µM and 30.8 µM | > 100 µM and 31.5 µM | > 100 µM and 28.1 µM | > 100 µM and 26.8 µM | > 100 µM and 34 µM | 27 µM and 12.4 µM | 35.4 µM and 5.76 µM | > 100 µM and 16.9 µM | 47.1 µM and 13.4 µM | 29.4 µM and 12.3 µM | 98.4 µM and 15.3 µM | > 100 µM and 17 µM | 25.9 µM and 4.67 µM | 82.8 µM and 13.3 µM | > 100 µM and 17.4 µM |
| O=C(O)c1ccc(CN2CCC(CN[C@@H]3C[C@H]3c3ccccc3)CC2)cc1 | > 100 µM | > 100 µM | > 100 µM | > 100 µM | > 100 µM | > 100 µM | > 100 µM | > 100 µM | > 100 µM | > 100 µM | > 100 µM | > 100 µM | > 100 µM | > 100 µM | > 100 µM | > 100 µM | > 100 µM | > 100 µM | > 100 µM | > 100 µM |
| COC(=O)c1ccc2[nH]c(O)c(C(=Nc3ccc(N(C)C(=O)CN4CCN(C)CC4)cc3)c3ccc4c(c3)OCO4)c2c1 | 2.4 µM | 1.52 µM | 7.34 µM | 1.9 µM | 7.75 µM | 2.16 µM | 6.77 µM | 1.69 µM | 3.45 µM | 1.19 µM | 0.323 µM | 0.36 µM | 0.774 µM | 0.415 µM | 2.09 µM | 0.754 µM | 2.27 µM | 0.0429 µM | 1.4 µM | 0.197 µM |
| C#CC1(O)C(COP(=O)(O)OCC(COP(=O)(O)OCC2OC(n3cc(F)c(=O)[nH]c3=O)CC2O)OCCCCCCCCCCCCCCCCCC)OC(n2ccc(N)nc2=O)C1O (stereo not drawn) | > 100 µM | 6.33 µM | > 36.5 µM | > 27.7 µM | – | 16.3 µM | > 31.6 µM | > 34.1 µM | 25.8 µM | 76.3 µM | 0.348 µM | 0.393 µM | 0.169 µM | 0.0765 µM | 0.764 µM | 0.0555 µM | 0.448 µM | 0.0933 µM | 0.618 µM | 10.1 µM |
| O=C1NC(=S)S/C1=C/c1ccc2c(c1)OCO2 | > 100 µM | > 100 µM | > 100 µM | > 100 µM | 87.7 µM | > 100 µM | > 100 µM | > 100 µM | > 100 µM | > 100 µM | > 100 µM | > 100 µM | > 100 µM | > 100 µM | 17.6 µM | 88.3 µM | > 100 µM | > 100 µM | 88.4 µM | > 100 µM |
| O=C(/C=C/c1ccccc1)Nc1ncc(Cc2ccccc2Cl)s1 | > 100 µM | 0.73 µM | > 100 µM | > 100 µM | > 100 µM | 11.7 µM | > 100 µM | > 100 µM | > 100 µM | > 100 µM | 0.459 µM | 0.223 µM | 0.509 µM | 0.426 µM | 1.26 µM | 0.282 µM | > 100 µM | 0.288 µM | 0.571 µM | 0.79 µM |
| CN(C)Cc1cc(C(F)(F)F)ccc1C(O)(c1ccccc1)c1ccccc1 | 38.8 µM | 25.4 µM | 35.8 µM | 31.8 µM | 27 µM | 50 µM | 24 µM | 49.6 µM | 29.6 µM | 56.5 µM | – | – | – | – | – | – | – | – | – | – |
| CN(C)CCC(=O)N1C/C(=C\c2ccc(Cl)c(Cl)c2)C(=O)/C(=C/c2ccc(Cl)c(Cl)c2)C1 | 1.7 µM | 0.747 µM | 0.752 µM | 0.278 µM | 0.977 µM | 0.824 µM | 2.53 µM | 0.948 µM | 1.53 µM | 3.76 µM | – | – | – | – | – | – | – | – | – | – |
| CNC(=O)OCc1nc(SSC(C)(C)C)n(C)c1COC(=O)NC | 4.16 µM | 2.84 µM | 5.35 µM | 8.61 µM | 3.67 µM | 31.7 µM | 7.64 µM | 38.8 µM | 20.7 µM | 31.1 µM | – | – | – | – | – | – | – | – | – | – |
| COc1ccc(C=O)cc1O[Si](C)(C)C(C)(C)C | > 100 µM | > 100 µM | > 100 µM | > 100 µM | > 100 µM | > 100 µM | > 100 µM | > 100 µM | > 100 µM | > 100 µM | – | – | – | – | – | – | – | – | – | – |
| COc1ccc2c(c1)NC1=C(C(=O)OC1)C2c1cc(OC)c(OC)c(OC)c1 (stereo not drawn) | > 100 µM | 61.8 µM | > 100 µM | > 100 µM | > 100 µM | > 54.5 µM | > 100 µM | > 100 µM | > 100 µM | – | < 0.01 µM | < 0.01 µM | < 0.01 µM | < 0.01 µM | < 0.0112 µM | < 0.01 µM | < 0.01 µM | < 0.01 µM | 12 µM | < 0.01 µM |
